Reference: patent EP0075029A1, “AGENT FOR TREATING CHRONIC OBLITERATIVE LUNG DISEASE” (priority 1981, dated 1982)
Structures can show the parent of a compound that is named as a salt.

How the values were obtained:
[1] = tested on: blood-perfused trachea in situ; assay: Blood-perfused trachea in situ (Himori and Taira): tracheal blood flow and inside pressure of the trachea; assay type: in vivo; details: intraarterial injection, dogs
From the text: The cervix of each dog was medisected to expose the pharynx and the upper part of the trachea.
The blood was introduced from the femoral artery by a peristaltic pump, and a part of the blood stream was by-passed to the downstream of the femoral artery through a Starling's air resistance tube provided parallel to the vascular bed of the trachea, thereby performing the perfusion under a constant pressure. The pressure of the perfusion was kept a little higher than the mean aortic blood pressure.
On the other hand, water was placed into the cuff of a tracheal tube equipped with a cuff, and the tube was inserted into the trachea. Then, the inside pressure of the cuff was measured by a pressure transducer to determine the inside pressure of the trachea as follows. Initially, water was placed in the cuff in such a manner that the static inside pressure of the trachea was about 40 cm H20. During the experiment, the tonus (the inside pressure of the trachea) of the tracheal smooth muscles in stationary phases was maintained by continuous intraarterial injections of 3 pg each of neostigmine into the vascular bed of the trachea at 30-minute intervals.
As an index of the selectivity of the dilating activity for trachea, the ratio of the increase of the blood flow in the trachea to the decrease of the inside pressure of the trachea was determined.

bronchi in situ = assay: animal or person; details: Canis lupus familiaris, iv, read-out: Percent inhibition
Experimental: The experiment was carried out in accordance with the Konzett-R6essler's method [Konzett, H. and Roessler, R: Arch. Exp. Pathol.
Six mongrel adult dogs were anesthetized with pentobarbital sodium (30 mg/kg). A tracheal cannula was inserted, and under artificial respiration, holes were incised in the right and left pleurae to equalize the pressure of the pleural cavity to the atmospheric pressure. The amount of air which overflowed by inspiration against a pressure of 10±1 cm H20 applied from the branch of the cannula was measured by a pneumotachograph.

With `CC(C)NCC(O)c1ccc(O)c(O)c1` (single isomer, unassigned; (-)) [isoproterenol, (-) isoproterenol hydrochloride] the “effect on blood flow in the trachea and inside pressure of the trachea” value [1] was “increased the blood flow in the trachea and reduced the inside pressure of the trachea in a dose dependent manner”.

For `Cn1c(=O)c2[nH]cnc2n(C)c1=O` [Theophylline, theophylline], the inhibition at 3 mg/kg (bronchi in situ) was 56% and the “effect on blood flow in the trachea and inside pressure of the trachea” value [1] was “increased the blood flow in the trachea and reduced the inside pressure of the trachea in a dose dependent manner”.
